Tests used:
GMK AH1 cells = assay: Cytotoxicity assay, GMK AH1; format: cell-based, African green monkey; settings: cell viability reduced by 50%
Description: The assay was performed in GMK AH1 cells that had been seeded in 96 well cluster plates and reached approximately 80-90% confluence at day 2 of culture. The cells were washed with EMEM and incubated for 24 h at 37° C. with 100 μL of serial two-fold dilutions of the test compound in serum-free EMEM. The effect of the test compound on cell viability was measured by using the tetrazolium-based CellTiter96 assay according to the manufacturer's protocol (Promega, Madison, Wis., USA).

HEp-2 cells = assay: Cytotoxicity assay, HEp-2; format: cell-based, Human; settings: cell viability reduced by 50%
RSV = assay: Anti-RSV screening assay (viral plaques); format: cell-based; settings: 100 μg/mL, viral plaques relative to mock treated controls
Description: (§1) African green monkey kidney (GMK AH1) cells^46 were cultured in Eagle's minimum essential medium (EMEM) supplemented with 2% calf serum, 0.05% Primaton RL substance (Kraft Inc., Norwich, USA) and antibiotics. Human epidermoid carcinoma (HEp-2) cells were cultured in Dulbecco's modified EMEM (DMEM) supplemented with 10% fetal calf serum and antibiotics. […] The RSV strain A-2^50 was used. The RSV stock was prepared as described by Hallak et al.^51 and stored at −70° C. in the presence of 40% sucrose^52.
(§2) The viral infectivity (the plaque number-reduction) assay and the plaque size-reduction assay were carried out as described previously^17. […] Subsequently, the cells were washed with 2 mL of EMEM and overlaid with 1% methylcellulose solution in EMEM. The plaques were visualized by staining with crystal violet solution after 2 (HSV-2) or 3 (HSV-1) days of incubation at 37° C. […] When the compounds were screened for anti-HSV or anti-RSV activity, mixtures of 200 PFU of the virus and the test compound (100 μg/mL) in serum-free EMEM were incubated for 10 min at room temperature before addition to cells and during the entire period of viral infection of cells and the development of viral plaques. In the plaque size-reduction assay, the compounds were added to cells (in methylcellulose overlay medium) after 2 h period of virus infection of cells in the absence of the inhibitor. After 2-3 days of incubation at 37° C., the viral plaques were visualized by staining the cells with 1% solution of crystal violet. For each compound tested, the images of twenty neighboring plaques were captured using a Leica DC300 digital camera attached to a Leitz-Wetzlar Diavert microscope. The area of each plaque was determined using IM500 image software (Leica). Similar protocols were used for RSV, except that the assays were performed in HEp-2 cells and DMEM supplemented with 2% heat-inactivated fetal calf serum was used instead of EMEM.

HSV-1 [1] = assay: Anti-HSV screening assay (viral plaques), HSV-1; format: cell-based; settings: 100 μg/mL, viral plaques relative to mock treated controls
Description: as §1, §2

HSV-1 [2] = assay: Viral plaque number-reduction assay, HSV-1; settings: GMK AH1 cells
Description: as §1, §2

HSV-2 = assay: Anti-HSV screening assay (viral plaques), HSV-2; format: cell-based; settings: 100 μg/mL, viral plaques relative to mock treated controls
Description: as §1, §2

CC(C)CCCC(C)C1CCC2C3CCC4CC(OC5OC(COS(=O)(=O)O)C(OS(=O)(=O)O)C(OS(=O)(=O)O)C5OC5OC(COS(=O)(=O)O)C(OS(=O)(=O)O)C(OC6OC(COS(=O)(=O)O)C(OS(=O)(=O)O)C(OC7OC(COS(=O)(=O)O)C(OS(=O)(=O)O)C(OS(=O)(=O)O)C7OS(=O)(=O)O)C6OS(=O)(=O)O)C5OS(=O)(=O)O)CCC4(C)C3CCC12C [Compound 20, 3β-Cholestanyl 2,3,4,6-tetra-O-sodium sulfonato-α-D-mannopyranosyl-(1→3)-2,4,6-tri-O-sodium sulfonato-α-D-mannopyranosyl-(1→3)-2,4,6-tri-O-sodium sulfonato-α-D-mannopyranosyl-(1→2)-3,4,6-tri-O-sodium sulfonato-α-D-mannopyranoside] was tested, and the “Cytotoxicity CC50 GMK AH1” value (GMK AH1 cells) was 110 µg/mL, the “Cytotoxicity CC50 HEp-2” value (HEp-2 cells) was 113 µg/mL and the “Residual infectivity (%) RSV” value (RSV) was 0%. The “Residual infectivity (%) HSV-1” value (HSV-1 [1]) was 0%, the “Selective index CC50/IC50 HSV-1” value (HSV-1 [2]) was 52 and the “Residual infectivity (%) HSV-2” value (HSV-2) was 0%.

From patent US20150065440A1 (Progen Pharmaceuticals Limited, priority 2007, published 2015)
